Measured values published in patent US20040106626A1, “6-Membered unsaturated heterocyclic compounds useful for selective inhibition of the coagulation cascade” (Pharmacia Corporation, priority 2001, published 2004).
Several values for one entry are separate records, joined by “and”; a condition that tells them apart may be missing. Identical values can stand only once. Like-named read-outs stand apart in the source and are kept apart here.

Assays:
[1] = tested on: thrombus formation in vena cava; experiment: Deep vein thrombosis model, thrombus accumulation on threads in vena cava; format: in vivo, Macaca fascicularis; conditions: non-human primate, n=4
Source text: This model measures the accumulation of thrombus on a set of four threads (4-0 surgical silk) that are introduced into the vena cava of a non-human primate. The device used to introduce the threads consists of a copper wire (12 cm) contained in a sheath of polyethylene tubing (9 cm). Four 4-0 surgical silk threads (3 cm) are tied to the end of the wire and retracted into the tubing. When the device is inserted into the iliac vein, the wire is advanced introducing the threads into the vena cava between the bifurcation and the left renal vein.
(§1) Non-human primates (Macaca fascicularis) are lightly anesthetized with ketamine to facilitate placement of an endotracheal tube and a femoral venous catheter. Animals are put into and maintained in a deep plane of anesthesia using pentobarbital via the femoral vein cannula. A jugular vein is cannulated for infusion of drug and a carotid artery is cannulated for blood sampling and for monitoring hemodynamic parameters.
The abdominal cavity is opened and an ultrasonic flow probe placed on the left iliac vein. The right iliac vein (RIV) is dissected free of surrounding tissue for a length of approximately 4 cm. The RIV is ligated approximately 4 cm distal to the bifurcation of the abdominal vena cava and a second ligature is placed, loosely, approximately 2 cm distal to the bifurcation. An incision is made in the RIV between the two ligatures, the device described above introduced into the iliac vein and the threads advanced into the vena cava. Every study consists of three thrombus measurements:
Control—Saline infusion. Threads are introduced and left in for 30 min, removed and thrombus weighed.
Treatment 1—Aspirin administered as a bolus or compound as an infusion. For aspirin treatment, aspirin is administered as a bolus and a 30 min equilibration period is allowed to assure the platelets are inhibited. For compound treatment, infusion is started and allowed to run for 30 min to reach steady-state blood levels of compound. Threads are introduced and left in for 30 min, removed and thrombus weighed;
Treatment 2—Compound administered as an infusion. Compound infusion is started and allowed to run for 30 min to reach steady-state blood levels of compound. Threads are introduced and left in for 30 min, removed and thrombus weighed.
During the 30 min equilibration/infusion periods of Treatment 1 and Treatment 2, a piece of tubing containing a copper wire, but no threads, is introduced into the vein to maintain the integrity of the vessel. After the threads have been in the vessel for 30 min, the entire device is removed from the vessel and the threads are cut from the device and weighed. The weight of the threads prior to insertion in the vessel is subtracted to get the net thrombus weight

prothrombin time = experiment: Prothrombin time in deep vein thrombosis model; format: in vivo, Macaca fascicularis; conditions: non-human primate, n=4
Protocol: The prothrombin time (PT) assay is a clotting assay that is used to determine deficiencies of clotting factor activity in the extrinsic pathway. The assay measures time to clotting after the addition of thromboplastin (human tissue factor). Normal human pooled plasma is incubated with 100 uM compound or saline in a coagulation machine. Thromboplastin is added and time to clotting is measured. Compounds with greater than 3×normal PT of 11.0 seconds are further analyzed by concentration response to determine at what concentration the prothrombin time is prolonged by 2×normal.
as §1
The table below depicts the effects of Aspirin coadministered with a compound of the present invention (compounds 54 and 55 are salts of the compound tested) on thrombus formation, prothrombin time and bleeding time in a non-human primate model of deep vein thrombosis.

bleeding time = experiment: Bleeding time in deep vein thrombosis model; format: in vivo, Macaca fascicularis; conditions: non-human primate, n=4
Protocol: To measure bleeding time, a blood pressure cuff is placed on the upper arm and inflated to 40 mm Hg. Two uniform cuts are made in the volar surface of the forearm, the blood from the cuts is collected onto a gauze pad every 30 sec. The time from when the cuts are made until the bleeding stops is considered the bleeding time. All gauze used to collect blood is placed in Drabkin's solution and the amount of blood lost from the bleeding time site is calculated based on the amount of hemoglobin measured in the Drabkin's solution.

[2] = target: T1, recombinant soluble tissue factor and recombinant human factor VIIa (TF-VIIa) (Homo sapiens, UniProt P08709); experiment: TF-VIIa assay (chromogenic substrate hydrolysis); format: biochemical; conditions: reported only as less than or greater than 0.1 uM
T1 construct: conversion of coagulation factor VII to VIIa by factor Xa; purchased American Diagnostica, Greenwich CT; host or cells: soluble TF made in house in E. coli
Method in brief: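 100 nM soluble tissue factor and 2 nM recombinant human factor VIIa added to 0.4 mM N-methylsulfonyl-D-phe-gly-arg-p-nitroaniline with inhibitor in 50 mM Tris-HCl pH 8.0, 5 mM CaCl2, 100 mM NaCl, 0.1% BSA. Percent inhibition from OD405 versus control.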

Human thrombin = target: T2, Human thrombin (Homo sapiens, UniProt P00734); experiment: Thrombin assay (chromogenic substrate); format: biochemical
T2 construct: converts prothrombin (II) to thrombin (IIa); purchased Calbiochem, La Jolla, Calif
Method in brief: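 Chromogenic assay with p-nitroaniline-releasing substrate; thrombin activity read as OD405 nm. Percent inhibition calculated from experimental versus control absorbance.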

Human factor Xa = target: T3, Human factor Xa (Homo sapiens, UniProt P00742); experiment: Xa assay (chromogenic substrate S-2765); format: biochemical; conditions: reported only as less than or greater than 30 uM; read-out: Factor Xa (II) IC50
T3 construct: purchased Enzyme Research Laboratories, South Bend Ind
Method in brief: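 Human factor Xa (0.3 nM) was incubated with inhibitor and 0.15 mM S-2765 in 50 mM Tris-HCl pH 8.0, 100 mM NaCl, 0.1% BSA. After 60 min at RT, p-nitroaniline release was read at 405 nm after background subtraction. Percent inhibition was calculated against uninhibited control.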

[3] = tested on: Normal human pooled plasma; experiment: Prothrombin time (PT) clotting assay; format: biochemical; conditions: concentration at which prothrombin time is prolonged by 2x normal, reported as less than or greater than 50 uM
Method in brief: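 Normal human pooled plasma incubated with 100 uM compound or saline, then thromboplastin (human tissue factor) added and clotting time recorded in a coagulation machine. Compounds exceeding 3× normal PT (11.0 s) are titrated to find the concentration doubling PT.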

[4] = Aspirin bolus followed by compound infusion 50 μg/kg/min (coadministered)
[5] = Aspirin bolus followed by compound infusion 100 μg/kg/min (coadministered)
[6] = compound infusion 100 μg/kg/min, no aspirin
[7] = compound infusion 200 μg/kg/min, no aspirin
[8] = reported only as less than or greater than 30 uM, read-out: Thrombin (II) IC50

T1 sequence (P08709 213-466 limits assumed): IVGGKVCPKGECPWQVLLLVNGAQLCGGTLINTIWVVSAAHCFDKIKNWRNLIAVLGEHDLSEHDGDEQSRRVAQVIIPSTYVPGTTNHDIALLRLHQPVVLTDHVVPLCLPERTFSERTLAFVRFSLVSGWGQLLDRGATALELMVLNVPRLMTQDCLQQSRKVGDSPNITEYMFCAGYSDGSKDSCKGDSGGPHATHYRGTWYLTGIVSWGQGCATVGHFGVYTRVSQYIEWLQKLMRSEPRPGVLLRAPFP
T1 sequence (P08709 61-212 limits assumed): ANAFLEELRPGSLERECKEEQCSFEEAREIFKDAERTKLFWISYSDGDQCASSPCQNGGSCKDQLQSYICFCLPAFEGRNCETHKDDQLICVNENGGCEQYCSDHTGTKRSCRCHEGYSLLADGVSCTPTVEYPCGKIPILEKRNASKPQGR
T1 sequence (P13726 33-251 partner limits assumed): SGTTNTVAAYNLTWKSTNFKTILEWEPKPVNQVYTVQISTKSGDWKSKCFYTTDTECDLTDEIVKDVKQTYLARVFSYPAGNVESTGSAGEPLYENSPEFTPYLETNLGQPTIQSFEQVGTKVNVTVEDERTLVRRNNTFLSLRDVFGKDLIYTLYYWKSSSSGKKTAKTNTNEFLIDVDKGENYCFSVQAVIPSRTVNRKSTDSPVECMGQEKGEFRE
T3 sequence (P00742 235-488 limits assumed): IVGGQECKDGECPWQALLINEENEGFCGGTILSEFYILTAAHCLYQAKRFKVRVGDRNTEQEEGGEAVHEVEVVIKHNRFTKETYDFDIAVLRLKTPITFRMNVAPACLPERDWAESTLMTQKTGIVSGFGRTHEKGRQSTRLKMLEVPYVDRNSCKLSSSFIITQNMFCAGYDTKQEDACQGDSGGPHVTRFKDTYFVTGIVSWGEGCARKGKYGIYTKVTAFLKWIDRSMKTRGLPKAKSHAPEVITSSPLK
T3 sequence (P00742 41-179 limits assumed): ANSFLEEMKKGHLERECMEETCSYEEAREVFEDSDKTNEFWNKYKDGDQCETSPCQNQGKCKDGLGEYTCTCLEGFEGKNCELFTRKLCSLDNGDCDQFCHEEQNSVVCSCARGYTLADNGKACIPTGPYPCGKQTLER

SMILES | IC50 [2] | IC50 (Human thrombin; [8]) | IC50 (Human factor Xa) | PT (Prothrombin time) 2xPT [3] | further results
CC(=O)Oc1ccccc1C(=O)O [Aspirin, reference compound] | – | – | – | – | Net Thrombus Wt ([1]; Aspirin bolus alone): 30.9 mg and 26.7 mg; Thrombus Wt: % Δ from Control ([1]; Aspirin bolus alone): −12% and −4%; Prothrombin Time (prothrombin time; Aspirin bolus alone): 11.8 s and 11.5 s; Bleeding Time (bleeding time; Aspirin bolus alone): 4.6 min and 4.3 min
CC(C)Nc1ncc(-c2cc(N)cc(O)c2)n(CC(=O)NCc2ccc(C(=N)N)cc2)c1=O [Compounds 54 and 55] | – | – | – | – | Net Thrombus Wt [1, 4]: 19.5 mg; Thrombus Wt: % Δ from Control [1, 4]: −34%; Net Thrombus Wt [1, 5]: 3.6 mg; Thrombus Wt: % Δ from Control [1, 5]: −89%; Net Thrombus Wt [1, 6]: 15.3 mg; Thrombus Wt: % Δ from Control [1, 6]: −56%; Net Thrombus Wt [1, 7]: 5.1 mg; Thrombus Wt: % Δ from Control [1, 7]: −85%; Prothrombin Time (prothrombin time; [4]): 17.3 s; Prothrombin Time (prothrombin time; [5]): 22.4 s; Prothrombin Time (prothrombin time; [6]): 22.7 s; Prothrombin Time (prothrombin time; [7]): 46.0 s; Bleeding Time (bleeding time; [4]): 4.1 min; Bleeding Time (bleeding time; [5]): 4.7 min; Bleeding Time (bleeding time; [7]): 3.9 min
CCC(CC)S(=O)(=O)c1cc(N)cc(-c2cnc(NC(C)C)c(=O)n2CC(=O)NCc2ccc(C(=N)N)cc2)c1.O=C(O)C(F)(F)F.O=C(O)C(F)(F)F [Example 231] | < 0.1 µM | > 30 µM | > 30 µM | <50.0 µM | –
CCS(=O)(=O)c1cc(N)cc(-c2cnc(NC(C)C)c(=O)n2CC(=O)NCc2ccc(C(=N)N)cc2)c1.O=C(O)C(F)(F)F.O=C(O)C(F)(F)F [Example 232] | < 0.1 µM | > 30 µM | > 30 µM | <50.0 µM | –
CC(C)Nc1ncc(-c2cc(N)cc(S(=O)(=O)CC3CCCCC3)c2)n(CC(=O)NCc2ccc(C(=N)N)cc2)c1=O.O=C(O)C(F)(F)F.O=C(O)C(F)(F)F [Example 233] | < 0.1 µM | > 30 µM | > 30 µM | <50.0 µM | –
CC(C)Nc1ncc(-c2cc(N)cc(S(=O)(=O)C3CCCC3)c2)n(CC(=O)NCc2ccc(C(=N)N)cc2)c1=O.O=C(O)C(F)(F)F.O=C(O)C(F)(F)F [Example 235] | < 0.1 µM | > 30 µM | > 30 µM | <50.0 µM | –
CCC(C)CS(=O)(=O)c1cc(N)cc(-c2cnc(NC(C)C)c(=O)n2CC(=O)NCc2ccc(C(=N)N)cc2)c1.O=C(O)C(F)(F)F.O=C(O)C(F)(F)F (stereo not drawn) [Example 237] | < 0.1 µM | > 30 µM | > 30 µM | <50.0 µM | –
CC(C)Nc1ncc(-c2cc(N)cc(OC(=O)C3CC3)c2)n(CC(=O)NCc2ccc(C(=N)N)cc2)c1=O.O=C(O)C(F)(F)F.O=C(O)C(F)(F)F [Example 238] | < 0.1 µM | > 30 µM | > 30 µM | <50.0 µM | –
CC(C)Nc1ncc(-c2cc(N)cc(OC(=O)NCc3ccccc3)c2)n(CC(=O)NCc2ccc(C(=N)N)cc2)c1=O.O=C(O)C(F)(F)F.O=C(O)C(F)(F)F [Example 239] | < 0.1 µM | – | > 30 µM | <50.0 µM | IC50 (Human thrombin; Thrombin (II) IC50, reported only as less than or greater than 30 uM): > 30 µM
CC[C@@H](C)NC(=O)c1cc(N)cc(-c2cnc(NC(C)C)c(=O)n2CC(=O)NCc2ccc(C(=N)N)cc2O)c1.O=C(O)C(F)(F)F [Example 240] | < 0.1 µM | > 30 µM | > 30 µM | <50.0 µM | –
